How the values were obtained:
Assay type in all cases: in vivo
[1] = tested on: Rhipicephalus microplus; assay: Rhipicephalus (Boophilus) microplus injection test (BOOPMI Inj); conditions: 168 h, injection into adult engorged female ticks, egg deposition after 7 days, read-out: activity (efficacy: 100% means all eggs are infertile); for pest or weed control at 0.004 mg: application rate 4 μg/tick; for pest or weed control at 0.02 mg: application rate 20 μg/tick
Summary of the method: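 Compound in DMSO, 1 μL, injected abdominally into five adult engorged females, which were then held in a climate chamber. Read-out is egg fertility, scored from deposition at 7 days, with unclear eggs followed to hatching (~42 days); 0% means all eggs fertile, 100% all infertile.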

[2] = tested on: Spodoptera frugiperda; assay: Spodoptera frugiperda spray test; conditions: in Zea mays, 168 h, read-out: activity (mortality)
Summary of the method: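 Percent kill of fall armyworm caterpillars was assessed 7 days after infesting dried, treated maize leaf sections. Treatment was a spray of compound in acetone/dimethylformamide, diluted with water containing emulsifier at 1000 ppm.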

[3] = tested on: Ctenocephalides felis; assay: Ctenocephalides felis in-vitro contact test, adult cat flea (CTECFE Cont); conditions: application rate 5 μg/cm^2 (=500 g/ha), adult cat fleas, after 48 hours, read-out: activity (efficacy: 100% means all fleas are dead or moribund)
Summary of the method: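 Efficacy, as percent of fleas dead or moribund, was scored 48 h after adults (5-10 per tube) were placed in glass tubes whose walls carried dried compound at 5 μg/cm^2 (900 ppm solution). Moribund meant failing to climb away from a 45-50° C. hot plate within 5 min.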

[4] = tested on: Myzus persicae; assay: Myzus persicae spray test; conditions: in Brassica rapa, foliar, 120 h; for mortality at 500 g/ha: read-out: activity (mortality), application rate 500 g/ha, spray, Chinese cabbage leaf disks, after 5 days; for mortality at 100 g/ha: read-out: activity (mortality), application rate 100 g/ha, spray, Chinese cabbage leaf disks, after 5 days
Summary of the method: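 Aphid mortality in % was assessed 5 days after spraying; leaf disks of Brassica pekinensis carrying mixed-instar green peach aphids were treated. Spray preparation: active compound in acetone plus dimethylformamide, diluted with emulsifier-containing water (1000 ppm).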

[5] = tested on: Diabrotica balteata; assay: Diabrotica balteata spray test; conditions: 168 h, wheat seeds, larvae, after 7 days, read-out: activity (efficacy: 100% means all seedlings have grown up like in the untreated, uninfected control); for pest or weed control at 32 µg/disc, 100 g/ha: application rate 100 g/ha (=32 μg/well); for pest or weed control at 160 µg/disc, 500 g/ha: application rate 500 g/ha (=160 μg/well)
Summary of the method: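 Efficacy (%) was scored 7 days after spraying, with 100% meaning growth like the untreated, uninfected control and 0% meaning no seedling grew. Spray solutions of compound in acetone/DMF with emulsifier-containing water went onto 1-day-germinated wheat seeds, and each unit was then infested with 10-20 banded cucumber beetle larvae.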

[6] = tested on: Rhipicephalus microplus; assay: Rhipicephalus (Boophilus) microplus in-vitro contact test, larval cattle tick, strain Parkhurst (BOOPMI Cont); conditions: application rate 5 μg/cm^2 (=500 g/ha), tick larvae, after 48 hours, read-out: activity (efficacy: 100% means all larvae are dead or moribund)
Summary of the method: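 After 48 h at 27° C. and 85% humidity, percent dead or moribund larvae was scored from negative geotactic behaviour. Larvae (20-50, Parkhurst strain, synthetic pyrethroid-resistant) were exposed in tubes coated with compound from acetone, 900 ppm corresponding to 5 μg/cm^2.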

[7] = tested on: Ctenocephalides felis; assay: Ctenocephalides felis oral test (CTECFE Oral); conditions: 48 h, read-out: activity (mortality)
Summary of the method: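 Percent mortality was recorded 2 days after roughly 20 adult Ctenocephalides felis fed on treated cattle blood. The blood was warmed to 37 °C beneath a parafilm membrane, with the fleas kept at room temperature. Compound was dissolved in DMSO and diluted into the blood to test concentration.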

SMILES: C[C@H](NC(=O)c1cc(C(F)(F)F)cc(C(F)(F)F)c1)c1ncnn1-c1ncc(Cl)s1 [II-40]
- pest or weed control at 0.004 mg [1]: 100%
- pest or weed control at 0.02 mg [1]: 100%
- mortality at 100 g/ha [2]: 100%
- mortality at 500 g/ha [2]: 100%
- pest or weed control at 5 µg/cm2 [3]: 100%
- mortality at 500 g/ha [4]: 100%
- pest or weed control at 32 µg/disc, 100 g/ha [5]: 100%
- pest or weed control at 160 µg/disc, 500 g/ha [5]: 100%
- pest or weed control at 5 µg/cm2 [6]: 100%

SMILES: Cc1nc([C@H](C)NC(=O)c2cc(Br)cc(OC(F)(F)F)c2)n(-c2ccc(C#N)cn2)n1 [II-47]
- mortality at 100 ppm [7]: 100%
- pest or weed control at 0.004 mg [1]: 100%
- pest or weed control at 0.02 mg [1]: 100%
- mortality at 100 g/ha [2]: 100%
- pest or weed control at 5 µg/cm2 [3]: 100%
- mortality at 100 g/ha [4]: 100%
- pest or weed control at 32 µg/disc, 100 g/ha [5]: 100%
- pest or weed control at 5 µg/cm2 [6]: 100%

SMILES: Cc1nc([C@H](C)NC(=O)c2cc(Cl)cc(Br)c2)n(-c2ccc(C#N)cn2)n1 [II-50]
- mortality at 100 ppm [7]: 100%
- pest or weed control at 0.004 mg [1]: 100%
- pest or weed control at 0.02 mg [1]: 100%
- mortality at 100 g/ha [2]: 100%
- pest or weed control at 5 µg/cm2 [3]: 100%
- mortality at 100 g/ha [4]: 100%
- pest or weed control at 32 µg/disc, 100 g/ha [5]: 100%
- pest or weed control at 5 µg/cm2 [6]: 100%

SMILES: Cc1nc([C@H](C)NC(=O)c2cc(Br)cc(Br)c2)n(-c2ccc(C#N)cn2)n1 [II-52]
- mortality at 100 ppm [7]: 100%
- pest or weed control at 0.004 mg [1]: 100%
- pest or weed control at 0.02 mg [1]: 100%
- mortality at 100 g/ha [2]: 100%
- pest or weed control at 5 µg/cm2 [3]: 100%
- mortality at 100 g/ha [4]: 90%
- pest or weed control at 32 µg/disc, 100 g/ha [5]: 100%
- pest or weed control at 5 µg/cm2 [6]: 100%

SMILES: C[C@H](NC(=O)c1cc(Cl)cc(C#N)c1)c1ncnn1-c1ccc(C#N)cn1 [II-57]
- mortality at 100 ppm [7]: 100%
- pest or weed control at 0.004 mg [1]: 100%
- pest or weed control at 0.02 mg [1]: 100%
- mortality at 100 g/ha [2]: 100%
- pest or weed control at 5 µg/cm2 [3]: 100%
- mortality at 100 g/ha [4]: 90%
- pest or weed control at 5 µg/cm2 [6]: 100%

SMILES: Cc1nc([C@H](C)NC(=O)c2cncc(C(F)(F)F)c2)n(-c2ccc(C#N)cn2)n1 [II-63]
- mortality at 100 ppm [7]: 100%
- pest or weed control at 0.004 mg [1]: 100%
- pest or weed control at 0.02 mg [1]: 100%
- pest or weed control at 5 µg/cm2 [3]: 100%
- mortality at 100 g/ha [4]: 100%
- pest or weed control at 32 µg/disc, 100 g/ha [5]: 100%
- pest or weed control at 5 µg/cm2 [6]: 100%

SMILES: C[C@H](NC(=O)c1cc(C(F)(F)F)cc(C(F)(F)F)c1)c1ncnn1-c1ccc(C(=O)N(C)CC2CC2)cn1 [II-73]
- pest or weed control at 0.004 mg [1]: 100%
- pest or weed control at 0.02 mg [1]: 100%
- mortality at 100 g/ha [2]: 100%
- mortality at 500 g/ha [2]: 100%
- pest or weed control at 5 µg/cm2 [3]: 100%
- mortality at 100 g/ha [4]: 100%
- mortality at 500 g/ha [4]: 100%
- pest or weed control at 32 µg/disc, 100 g/ha [5]: 100%
- pest or weed control at 160 µg/disc, 500 g/ha [5]: 100%
- pest or weed control at 5 µg/cm2 [6]: 100%

SMILES: C[C@H](NC(=O)c1cc(C(F)F)cc(C(F)F)c1)c1ncnn1-c1ccc(C#N)cn1 [II-101]
- pest or weed control at 0.004 mg [1]: 100%
- mortality at 100 g/ha [2]: 100%
- pest or weed control at 5 µg/cm2 [3]: 100%
- mortality at 100 g/ha [4]: 90%
- pest or weed control at 32 µg/disc, 100 g/ha [5]: 100%
- pest or weed control at 5 µg/cm2 [6]: 100%

SMILES: C[C@H](NC(=O)c1cc(OC(F)F)cc(C(F)F)c1)c1ncnn1-c1ccc(C#N)cn1 [II-116]
- pest or weed control at 0.004 mg [1]: 100%
- mortality at 100 g/ha [2]: 100%
- pest or weed control at 5 µg/cm2 [3]: 100%
- mortality at 100 g/ha [4]: 90%
- pest or weed control at 32 µg/disc, 100 g/ha [5]: 100%
- pest or weed control at 5 µg/cm2 [6]: 100%

SMILES: Cc1nc([C@H](C)NC(=O)c2cc(OC(F)(F)F)cc(C(F)F)c2)n(-c2ccc(C#N)cn2)n1 [II-117]
- pest or weed control at 0.004 mg [1]: 100%
- mortality at 100 g/ha [2]: 100%
- pest or weed control at 5 µg/cm2 [3]: 100%
- mortality at 100 g/ha [4]: 100%
- pest or weed control at 32 µg/disc, 100 g/ha [5]: 100%
- pest or weed control at 5 µg/cm2 [6]: 100%
